Assay results from ChEMBL document CHEMBL1131957, “Structure-activity relationship of a series of diaminoalkyl substituted benzimidazole as neuropeptide Y Y1 receptor antagonists” (Bioorg Med Chem Lett, 1999).
pKi: −log10 of the molar value.

Legend:
[1] = biological target: T1, Neuropeptide Y receptor type 1 (Homo sapiens, UniProt P25929); assay: Ability to displace [125I]-peptide YY binding to cloned human Neuropeptide Y receptor type 1 expressed in AV-12 cells; type: cell-based, AV12
T1 sequence (P25929 whole entry): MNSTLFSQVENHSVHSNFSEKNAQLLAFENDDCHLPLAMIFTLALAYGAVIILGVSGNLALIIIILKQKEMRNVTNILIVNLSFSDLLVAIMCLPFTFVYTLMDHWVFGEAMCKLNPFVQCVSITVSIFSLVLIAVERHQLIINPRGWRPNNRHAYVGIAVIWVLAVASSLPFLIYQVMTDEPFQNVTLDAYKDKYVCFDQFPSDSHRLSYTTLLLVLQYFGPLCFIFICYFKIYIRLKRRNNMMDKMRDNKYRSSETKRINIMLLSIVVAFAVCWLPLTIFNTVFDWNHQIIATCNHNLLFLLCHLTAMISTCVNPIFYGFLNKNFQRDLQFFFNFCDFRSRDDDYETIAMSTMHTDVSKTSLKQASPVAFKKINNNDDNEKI

[2] = biological target: T2, Neuropeptide Y receptor type 2 (Homo sapiens) (UniProt P49146); assay: Ability to displace [125I]-peptide YY binding to cloned human Neuropeptide Y receptor type 2 expressed in CHO cells at a concentration of 1 uM; type: cell-based
T2 sequence (whole entry): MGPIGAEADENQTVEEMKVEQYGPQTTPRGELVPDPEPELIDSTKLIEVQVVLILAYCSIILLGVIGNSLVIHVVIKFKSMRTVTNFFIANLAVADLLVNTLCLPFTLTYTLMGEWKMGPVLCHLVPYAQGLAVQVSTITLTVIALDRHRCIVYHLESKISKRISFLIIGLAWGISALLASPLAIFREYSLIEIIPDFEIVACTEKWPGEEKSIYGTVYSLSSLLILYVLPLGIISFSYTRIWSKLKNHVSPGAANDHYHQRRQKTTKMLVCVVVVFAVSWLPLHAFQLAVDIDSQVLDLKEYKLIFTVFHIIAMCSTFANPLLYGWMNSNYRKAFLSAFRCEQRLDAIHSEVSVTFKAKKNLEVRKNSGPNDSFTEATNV

[3] = biological target: T3, Neuropeptide Y receptor type 5 (Homo sapiens) (UniProt Q15761); assay: Ability to displace [125I]-peptide YY binding to cloned human Neuropeptide Y receptor type 5 expressed in CHO cells at a concentration of 1 uM; type: cell-based
T3 sequence (whole entry): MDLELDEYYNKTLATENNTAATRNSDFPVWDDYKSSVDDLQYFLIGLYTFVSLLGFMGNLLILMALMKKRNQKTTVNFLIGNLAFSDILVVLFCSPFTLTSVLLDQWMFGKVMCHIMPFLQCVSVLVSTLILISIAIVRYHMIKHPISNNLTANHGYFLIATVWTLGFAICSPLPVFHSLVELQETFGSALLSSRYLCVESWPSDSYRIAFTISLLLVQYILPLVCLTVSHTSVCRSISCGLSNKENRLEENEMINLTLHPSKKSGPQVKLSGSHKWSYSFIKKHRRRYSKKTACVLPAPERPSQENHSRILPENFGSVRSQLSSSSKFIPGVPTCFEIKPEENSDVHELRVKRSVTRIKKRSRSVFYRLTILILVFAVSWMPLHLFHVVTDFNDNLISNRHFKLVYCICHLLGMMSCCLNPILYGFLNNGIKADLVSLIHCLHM

SK-N-MC = assay: Ability to antagonize 1 nM NPY''s inhibition of forskolin-stimulated cyclic AMP accumulation in SK-N-MC cells; type: functional, cell-based, Homo sapiens
[4] = biological target: Neuropeptide Y receptor type 4 (Homo sapiens) (UniProt P50391); assay: Ability to displace [125I]-peptide YY binding to cloned human Neuropeptide Y receptor type 4 expressed in CHO cells at a concentration of 1 uM; type: cell-based
Chain of Neuropeptide Y receptor type 4 (Homo sapiens) (P50391 whole entry): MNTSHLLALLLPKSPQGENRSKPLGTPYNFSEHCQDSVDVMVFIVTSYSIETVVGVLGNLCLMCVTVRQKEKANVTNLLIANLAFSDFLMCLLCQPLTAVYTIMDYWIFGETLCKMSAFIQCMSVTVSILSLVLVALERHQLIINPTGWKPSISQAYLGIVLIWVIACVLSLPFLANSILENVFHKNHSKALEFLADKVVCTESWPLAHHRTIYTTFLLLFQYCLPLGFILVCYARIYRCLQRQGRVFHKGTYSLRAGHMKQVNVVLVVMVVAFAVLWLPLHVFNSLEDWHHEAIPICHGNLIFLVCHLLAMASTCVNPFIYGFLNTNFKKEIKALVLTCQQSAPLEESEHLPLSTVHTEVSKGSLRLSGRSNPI

Compound | pKi [1] | also measured
CC(C)CCN1CCC(CCCn2c(COc3ccccc3)nc3c(OCCCN4CCCCC4)cccc32)CC1 | 9.54 | –
c1ccc(OCc2nc3c(OCCCN4CCCCC4)cccc3n2CCCC2CCNCC2)cc1 | 8.35 | –
CN1CCC(CCCn2c(COc3ccccc3)nc3c(OCCCN4CCCCC4)cccc32)CC1 | 8.79 | –
c1ccc(CCCN2CCC(CCCn3c(COc4ccccc4)nc4c(OCCCN5CCCCC5)cccc43)CC2)cc1 | 9.44 | pKi (SK-N-MC): 8.47
C=CCCN1CCC(CCCn2c(COc3ccccc3)nc3c(OCCCN4CCCCC4)cccc32)CC1 | 9.15 | –
C(=C/c1ccccc1)/CN1CCC(CCCn2c(COc3ccccc3)nc3c(OCCCN4CCCCC4)cccc32)CC1 | 9.74 | –
O=C(CCCN1CCC(CCCn2c(COc3ccccc3)nc3c(OCCCN4CCCCC4)cccc32)CC1)c1ccccc1 | 9.88 | –
O=C(CN1CCC(N2CCCCC2)CC1)c1c(COc2ccc(Cl)cc2)n(CCCC2CCCNC2)c2ccccc12 (stereo not given) | 9.12 | –
CC(C)CN1CCC(CCCn2c(COc3ccccc3)nc3c(OCCCN4CCCCC4)cccc32)CC1 | 9.08 | –
CC(C)N1CCC(CCCn2c(COc3ccccc3)nc3c(OCCCN4CCCCC4)cccc32)CC1 | 8.79 | –

Continued by rising pKi [1], values first:

pKi [1] | Compound | also measured
8.79 | C=CCN1CCC(CCCn2c(COc3ccccc3)nc3c(OCCCN4CCCCC4)cccc32)CC1 | –
9.41 | c1ccc(OCc2nc3c(OCCCN4CCCCC4)cccc3n2CCCC2CCN(CC3CCCCC3)CC2)cc1 | –
9.50 | Oc1ccc(CCN2CCC(CCCn3c(COc4ccccc4)nc4c(OCCCN5CCCCC5)cccc43)CC2)cc1 | –
9.55 | c1ccc(OCc2nc3c(OCCCN4CCCCC4)cccc3n2CCCC2CCN(CCC3CCCCC3)CC2)cc1 | pKi (SK-N-MC): 8.28
9.72 | c1ccc(CCN2CCC(CCCn3c(COc4ccccc4)nc4c(OCCCN5CCCCC5)cccc43)CC2)cc1 | –
9.95 | O=C(CCN1CCC(CCCn2c(COc3ccccc3)nc3c(OCCCN4CCCCC4)cccc32)CC1)c1ccccc1 | –
9.97 | c1ccc(OCc2nc3c(OCCCN4CCCCC4)cccc3n2CCCC2CCN(CCCN3CCCCC3)CC2)cc1 | pKi (SK-N-MC): 9.25
10.28 | Ic1ccc(CCN2CCC(CCCn3c(COc4ccccc4)nc4c(OCCCN5CCCCC5)cccc43)CC2)cc1 | inhibition [2]: < 50%; inhibition [3]: < 50%; pKi (SK-N-MC): 8.22; inhibition [4]: < 50%
